These results are taken from patent publication US20250368666A1, “INDAZOLE COMPOUNDS” (TYRA BIOSCIENCES, INC., priority 2022, published 2025).

Structures are written as SMILES. Read-outs that look alike come from different tables or passages of the source. A value given as a limit tells only on which side of the number the result lay.

One test has as its target T1, FGFR3 (Homo sapiens, UniProt P22607).
T1 construct: made in house; host or cells: E. coli (BL21-derived), T7 phage
In words: Kinase binding assay (kinase-tagged T7 phage, affinity beads, qPCR), Kd. The note with it: read-out: FGFR3 (Kd nM). In short, it runs like this: (§1)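 Kd obtained by Levenberg–Marquardt Hill-equation fit (slope −1) to qPCR-measured kinase retained on ligand-coated streptavidin beads.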
In general terms: Quantitative PCR measures a nucleic acid by following its amplification.

Another test has as its target T2, FGFR1 (Homo sapiens, UniProt P11362).
T2 construct: made in house; host or cells: E. coli (BL21-derived), T7 phage
The description is as above. Conditions: read-out: FGFR1 (Kd nM). In short, it runs like this:
as §1

In test [1] the test system is RT112/84 cell line (FGFR3-fusion). The experiment in a line: Cancer cell line cell viability assay (Cell Titer-Glo), 72 hr. The test is classed as cell-based. The note with it: Homo sapiens, RT112/84, RT112/84 cell line (FGFR3-fusion). The text has this: (§2) Experimental Purpose: To detect the change of intracellular ATP by Cell Titer-Glo® and to evaluate the inhibitory effect of the compounds on cancer cell lines by determining the in vitro IC50 value of the compounds.
(§3) Cell Titer-Glo® 2.0 Luminescent cell viability assay reagent was purchased from Promega (Madison, WI). KG-1, KATO-III, and MDA-MB-453 cell lines were purchased from American Type Culture Collection (Manassas, VA). RT112/84 cell line was purchased from Millipore-Sigma (St. Louis, MO). HuH7 cells were purchased from Seikisui Xenotech (Kansas City, KS). RT112/84 and MDA-MB-453 cells were cultured in RPMI1640 media supplemented with 10% fetal bovine serum. KG-1 and KATO-III cell lines were cultured in IMDM media supplemented with 20% FBS. HuH7 cells were cultured in IMDM media supplemented with 10% FBS. Cultures were maintained at 37° C. in a humidified atmosphere of 5% CO2 and 95% air.
(§4) Cell Viability Assay Procedure: Cells were plated in 96-well clear bottom/white plates (Corning #3903) at a range of densities depending on the optimal assay window (5,000-20,000 cells/well in […] of media), incubated overnight. The next day, test compound DMSO stock solutions were made at 10 mM and […] final concentration. Compounds were then added to cells in a 9-dose, 4-fold dilution series starting at 3 μM with an HP 300e Digital Dispenser (each dose was applied in triplicate). DMSO was backfilled to each well up to 301 nL total volume of test compound+DMSO, and a total of 301 nL DMSO was added to a control/no test compound well in triplicate. The cells in cell culture plates were incubated with the compounds at 37° C. and 5% CO2 for 72 hours-120 hours depending on the cell line. Then 50 μl of Cell Titer Glo 2.0 reagent was added to each well of the cell culture plates. The contents were covered from light and mixed on an orbital shaker at room temperature for minimum of 10 min. Luminescence was recorded by a Clariostar Plus Microplate Reader (BMG Labtech, Cary, NC). Cells were assessed as a percentage of DMSO only treated control cells. Curves were plotted and IC50 values were calculated using the GraphPad Prism 9 program based on a sigmoidal dose-response equation (log (inhibitor) vs. response—Variable slope, 4-parameter).

The subject of test [2] is KATO-III cell line (FGFR2 amplification). Described as above. The test is classed as cell-based. Conditions: Homo sapiens, KATO III.
Source text: as §2, §3, §4

Test [3] has as its system KG-1 cell line (FGFR 1-fusion). The description is as above. The note with it: Homo sapiens, KG-1, KG-1 cell line (FGFR1-fusion). It counts as cell-based.
Source text: as §2, §3, §4

[4] abbreviates: kinase binding assay, 11-point 3-fold dilution series.

T1 sequence (P22607 23-806): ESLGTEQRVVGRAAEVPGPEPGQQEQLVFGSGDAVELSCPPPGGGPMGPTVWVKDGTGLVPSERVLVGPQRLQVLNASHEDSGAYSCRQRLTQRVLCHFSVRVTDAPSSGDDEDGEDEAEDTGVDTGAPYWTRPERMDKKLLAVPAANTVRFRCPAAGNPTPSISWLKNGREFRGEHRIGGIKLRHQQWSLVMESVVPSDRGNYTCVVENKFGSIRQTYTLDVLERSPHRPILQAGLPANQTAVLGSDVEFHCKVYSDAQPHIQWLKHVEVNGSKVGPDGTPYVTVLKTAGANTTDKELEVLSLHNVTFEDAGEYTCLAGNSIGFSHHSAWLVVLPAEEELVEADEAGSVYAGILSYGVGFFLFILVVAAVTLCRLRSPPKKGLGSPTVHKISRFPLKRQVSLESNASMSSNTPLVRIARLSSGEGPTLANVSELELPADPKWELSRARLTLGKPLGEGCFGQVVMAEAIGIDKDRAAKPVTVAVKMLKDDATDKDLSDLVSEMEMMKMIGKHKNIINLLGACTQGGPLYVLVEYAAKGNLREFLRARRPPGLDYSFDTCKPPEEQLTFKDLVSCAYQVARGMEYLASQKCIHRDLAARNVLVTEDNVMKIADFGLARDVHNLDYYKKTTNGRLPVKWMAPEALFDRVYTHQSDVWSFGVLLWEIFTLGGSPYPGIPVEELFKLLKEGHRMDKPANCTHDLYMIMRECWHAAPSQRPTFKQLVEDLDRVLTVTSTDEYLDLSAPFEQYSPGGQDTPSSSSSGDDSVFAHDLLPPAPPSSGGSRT
T2 sequence (P11362 22-822): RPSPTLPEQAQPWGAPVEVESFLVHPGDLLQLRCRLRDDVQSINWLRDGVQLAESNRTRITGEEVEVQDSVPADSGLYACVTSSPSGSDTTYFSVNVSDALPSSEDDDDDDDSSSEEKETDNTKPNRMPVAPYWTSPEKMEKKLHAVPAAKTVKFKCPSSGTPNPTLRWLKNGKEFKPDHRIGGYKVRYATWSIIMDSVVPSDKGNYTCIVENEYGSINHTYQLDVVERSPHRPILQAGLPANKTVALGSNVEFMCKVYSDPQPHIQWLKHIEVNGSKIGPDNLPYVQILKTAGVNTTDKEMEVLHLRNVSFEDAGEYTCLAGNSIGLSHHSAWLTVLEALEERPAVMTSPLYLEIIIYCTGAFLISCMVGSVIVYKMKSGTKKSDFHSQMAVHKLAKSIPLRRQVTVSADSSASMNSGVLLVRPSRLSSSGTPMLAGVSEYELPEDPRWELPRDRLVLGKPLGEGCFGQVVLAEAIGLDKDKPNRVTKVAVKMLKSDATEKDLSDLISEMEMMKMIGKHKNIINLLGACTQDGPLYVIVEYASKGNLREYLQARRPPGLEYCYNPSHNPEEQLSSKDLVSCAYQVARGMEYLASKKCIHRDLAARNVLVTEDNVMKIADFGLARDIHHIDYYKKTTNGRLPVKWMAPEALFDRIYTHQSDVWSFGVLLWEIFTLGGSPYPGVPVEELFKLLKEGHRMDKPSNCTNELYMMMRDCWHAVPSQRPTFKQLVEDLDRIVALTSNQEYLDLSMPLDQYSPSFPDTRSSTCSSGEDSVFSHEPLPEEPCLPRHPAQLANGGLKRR

As to `CC(C)=CCC1(N)CN(c2ccc(-c3n[nH]c4ccc(O[C@H](C)c5c(Cl)cncc5Cl)cc34)nn2)C1` [Example 378, (R)-1-(6-(5-(1-(3,5-dichloropyridin-4-yl)ethoxy)-1H-indazol-3-yl)pyridazin-3-yl)-3-(3-methylbut-2-en-1-yl)azetidin-3-amine], the Kd at FGFR3 and on FGFR1 was 1 to 50 nM each time. For the same compound, the results for the IC50 in test [1], in test [2] and in test [3] were 0.1 to 50 nM, 50 to 200 nM and above 1000 nM, respectively.

Consider `C[C@@H](Oc1ccc2[nH]nc(-c3ccc(N4CC(N)(CCS(C)(=O)=O)C4)nn3)c2c1)c1c(Cl)cncc1Cl` [Example 294, (R)-1-(6-(5-(1-(3,5-dichloropyridin-4-yl)ethoxy)-1H-indazol-3-yl)pyridazin-3-yl)-3-(2-(methylsulfonyl)ethyl)azetidin-3-amine], for which the Kd on FGFR3 and at FGFR1 was 1 to 50 nM each time. Further, the IC50 is 0.1 to 50 nM in test [1], 50 to 200 nM in test [2] and above 1000 nM in test [3].

In the case of `C[C@@H](Oc1ccc2[nH]nc(-c3ccc(N4CC(N)(C(=O)N(C)C)C4)nn3)c2c1)c1c(Cl)cncc1Cl` [Example 301, (R)-3-Amino-1-(6-(5-(1-(3,5-dichloropyridin-4-yl)ethoxy)-1H-indazol-3-yl)pyridazin-3-yl)-N,N-dimethylazetidine-3-carboxamide], the Kd at FGFR3 and on FGFR1 was 1 to 50 nM in each case. Besides, the results for the IC50 in test [1], in test [2] and in test [3] were 0.1 to 50 nM, 0.1 to 50 nM and 50 to 200 nM, respectively.

Turning to `C[C@@H](Oc1ccc2[nH]nc(-c3cnc(N4CC(N)(CCC#N)C4)c(F)c3)c2c1)c1c(Cl)cncc1Cl` [Example 298, (R)-3-(3-amino-1-(5-(5-(1-(3,5-dichloropyridin-4-yl)ethoxy)-1H-indazol-3-yl)-3-fluoropyridin-2-yl)azetidin-3-yl)propanenitrile], the dissociation constant Kd at FGFR3 and on FGFR1 was 1 to 50 nM throughout. Also, the IC50 in test [1] fell in the range of 0.1 to 50 nM; in test [2] it was 0.1 to 50 nM; in test [3], 50 to 200 nM.

Consider `C[C@@H](Oc1ccc2[nH]nc(-c3ccc(N4CCC(N)(CS(C)(=O)=O)CC4)nn3)c2c1)c1c(Cl)cncc1Cl` [Example 386, (R)-1-(6-(5-(1-(3,5-dichloropyridin-4-yl)ethoxy)-1H-indazol-3-yl)pyridazin-3-yl)-4-((methylsulfonyl)methyl)piperidin-4-amine], for which the dissociation constant Kd at FGFR3 (setting [4]) and at FGFR1 (setting [4]) was 1 to 50 nM throughout. The IC50 was 0.1 to 50 nM in test [1], 0.1 to 50 nM in test [2] and 50 to 200 nM in test [3].

For the compound `C=CCNC1(CC#N)CN(c2ncc(-c3n[nH]c4ccc(O[C@H](C)c5c(Cl)cncc5Cl)cc34)cc2F)C1` [Example 248, 2-[3-(allylamino)-1-[5-[5-[(1R)-1-(3,5-dichloro-4-pyridyl)ethoxy]-1H-indazol-3-yl]-3-fluoro-2-pyridyl]azetidin-3-yl]acetonitrile], the Kd at FGFR3 and at FGFR1 was 1 to 50 nM in each case. Further, the IC50 is 0.1 to 50 nM in test [1], 50 to 200 nM in test [2] and 200 to 1000 nM in test [3].

On to `CC(C)OCC1(N)CN(c2ccc(-c3n[nH]c4ccc(O[C@H](C)c5c(Cl)cncc5Cl)cc34)nn2)C1` [Example 377, (R)-1-(6-(5-(1-(3,5-dichloropyridin-4-yl)ethoxy)-1H-indazol-3-yl)pyridazin-3-yl)-3-(isopropoxy-methyl)a-zetidin-3-amine], for which the Kd on FGFR3 and at FGFR1 was 1 to 50 nM each time. The IC50 in test [1] lay within 0.1 to 50 nM; in test [2], 50 to 200 nM; in test [3] it was 200 to 1000 nM.

Consider `COc1cc2[nH]nc(-c3cnc(N4CC(C)(N)C4)c(F)c3)c2cc1O[C@H](C)c1c(Cl)cncc1Cl` [Example 304, (R)-1-(5-(5-(1-(3,5-dichloropyridin-4-yl)ethoxy)-6-methoxy-1H-indazol-3-yl)-3-fluoropyridin-2-yl)-3-methylazetidin-3-amine], for which the Kd on FGFR3 and at FGFR1 was 1 to 50 nM each time. Also, the IC50 lay in the range of 0.1 to 50 nM in test [1], 0.1 to 50 nM in test [2] and 50 to 200 nM in test [3].

Turning to `C[C@@H](Oc1ccc2[nH]nc(-c3ccc(N4CC(N)(CS(C)(=O)=O)C4)nn3)c2c1)c1c(Cl)cncc1Cl` [Example 387, (R)-1-(6-(5-(1-(3,5-dichloropyridin-4-yl)ethoxy)-1H-indazol-3-yl)pyridazin-3-yl)-3-((methylsulfonyl)meth-yl)azetidin-3-amine], the Kd on FGFR3 (setting [4]) and on FGFR1 (setting [4]) was 1 to 50 nM in each case. Moreover, the IC50 in test [1] is 0.1 to 50 nM; in test [2] it was 50 to 200 nM; in test [3] it was 200 to 1000 nM.

Regarding `C[C@@H](Oc1ccc2[nH]nc(-c3ccc(N4CC(N)(c5ccnn5C)C4)nn3)c2c1)c1c(Cl)cncc1Cl` [Example 391, (R)-1-(6-(5-(1-(3,5-dichloropyridin-4-yl)ethoxy)-1H-indazol-3-yl)pyridazin-3-yl)-3-(1-methyl-1H-pyrazol-5-yl)azetidin-3-amine], the Kd on FGFR3 (setting [4]) and on FGFR1 (setting [4]) was 1 to 50 nM each time. Moreover, the results for the IC50 in test [1], in test [2] and in test [3] were 0.1 to 50 nM, 0.1 to 50 nM and 50 to 200 nM, respectively.

On to `CCOCC1(N)CN(c2ncc(-c3n[nH]c4ccc(O[C@H](C)c5c(Cl)cncc5Cl)cc34)cc2F)C1` [Example 390, 1-[5-[5-[(1R)-1-(3,5-dichloro-4-pyridyl)ethoxy]-1H-indazol-3-yl]-3-fluoro-2-pyridyl]-3-(ethoxymethyl)azeti-din-3-amine], for which the Kd on FGFR3 (setting [4]) and on FGFR1 (setting [4]) was 1 to 50 nM each time. The IC50 in test [1] lay within 0.1 to 50 nM; in test [2] it was 0.1 to 50 nM; in test [3], 50 to 200 nM.

As for `CCOCC1(N)CN(c2ccc(-c3n[nH]c4ccc(O[C@H](C)c5c(Cl)cncc5Cl)cc34)nn2)C1` [Example 316, (R)-1-(6-(5-(1-(3,5-dichloropyridin-4-yl)ethoxy)-1H-indazol-3-yl)pyridazin-3-yl)-3-(ethoxymethyl)azeti-din-3-amine], the Kd at FGFR3 and at FGFR1 was 1 to 50 nM throughout. Moreover, the results for the IC50 in test [1], in test [2] and in test [3] were 0.1 to 50 nM, 50 to 200 nM and 50 to 200 nM, respectively.

`C[C@@H](Oc1ccc2[nH]nc(-c3ccc(N4CC(C)(NC(=O)CN(C)C)C4)nn3)c2c1)c1c(Cl)cncc1Cl` [Example 297, (R)—N-(1-(6-(5-(1-(3,5-dichloropyridin-4-yl)ethoxy)-1H-indazol-3-yl)pyridazin-3-yl)-3-methylazetidin-3-yl)-2-(dimethylamino)acetamide]: the Kd at FGFR3 and on FGFR1 was 1 to 50 nM each time. For the same compound, the IC50 in test [1], in test [2] and in test [3] was 0.1 to 50 nM in each case.

Regarding `C[C@@H](Oc1ccc2[nH]nc(-c3ccc(N4CC(C)(NCC5CC5)C4)nn3)c2c1)c1c(Cl)cncc1Cl` [Example 249, (R)-N-(cyclopropyl-methyl)-1-(6-(5-(1-(3,5-dichloropyridin-4-yl)ethoxy)-1H-indazol-3-yl)pyridazin-3-yl)-3-methylazetidin-3-amine], the Kd on FGFR3 and on FGFR1 was 1 to 50 nM each time. The IC50 was 0.1 to 50 nM in test [1], 0.1 to 50 nM in test [2] and 50 to 200 nM in test [3].

A word on the Kd: it is the constant that tells how readily two partners part at equilibrium. By IC50 is commonly meant the concentration that inhibits the measured activity by half. A low value points to greater potency in that assay.
